Results: PubChem BioAssay AID1845199 (Molecular Pharmacology Branch, DTP, NCI, 2023)

Tested on: 556581-035-R-J1 tumor spheroid viability, % test/control
Assay: Anticancer human tumor 556581-035-R-J1 patient-derived ovarian carcinoma cell line growth inhibition
Conditions: spheroids with HUVEC and MSC; for IC50: curve of first compound; for viability, T/C: stronger effect = lower value; active = viability on the fitted dose curve at most 10% of control; inactive = the rest
In short: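 Complex spheroids of malignant cells with endothelial cells and mesenchymal stem cells; agents alone or combined, from near clinical Cmax (or 10 microM if unknown) down in half-log steps, 0.25% DMSO final.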

[1] = second compound 1 µM, first compound 0.00949 µM
[2] = second compound 1 µM, first compound 0.03 µM
[3] = second compound 1 µM, first compound 0.0949 µM
[4] = second compound 1 µM, first compound 0.3 µM
[5] = second compound 1 µM, first compound 0.949 µM
[6] = second compound 1 µM, first compound 3 µM
[7] = second compound 3.16 µM, first compound 0.00949 µM
[8] = second compound 3.16 µM, first compound 0.03 µM
[9] = second compound 3.16 µM, first compound 0.0949 µM
[10] = second compound 3.16 µM, first compound 0.3 µM
[11] = second compound 3.16 µM, first compound 0.949 µM
[12] = second compound 3.16 µM, first compound 3 µM
[13] = second compound 10 µM, first compound 0.00949 µM
[14] = second compound 10 µM, first compound 0.03 µM
[15] = second compound 10 µM, first compound 0.0949 µM
[16] = second compound 10 µM, first compound 0.3 µM
[17] = second compound 10 µM, first compound 0.949 µM
[18] = second compound 10 µM, first compound 3 µM
[19] = second compound 31.6 µM, first compound 0.00949 µM
[20] = second compound 31.6 µM, first compound 0.03 µM
[21] = second compound 31.6 µM, first compound 0.0949 µM
[22] = second compound 31.6 µM, first compound 0.3 µM
[23] = second compound 31.6 µM, first compound 0.949 µM
[24] = second compound 31.6 µM, first compound 3 µM
[25] = second compound 100 µM, first compound 0.00949 µM
[26] = second compound 100 µM, first compound 0.03 µM
[27] = second compound 100 µM, first compound 0.0949 µM
[28] = second compound 100 µM, first compound 0.3 µM
[29] = second compound 100 µM, first compound 0.949 µM
[30] = second compound 100 µM, first compound 3 µM
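Note: spheroids exposed to compounds for 7 days before viability read.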

CNCc1ccc(-c2cc(-c3nc(-c4ccc(S(=O)(=O)C(C)C)cc4)cnc3N)on2)cc1 + Cn1nnc2c(C(N)=O)ncn2c1=O
1.38 µM: IC50 (second compound 10 µM) | IC50 (second compound 31.6 µM)
inactive: viability, T/C [1] 101% | viability, T/C [2] 108% | viability, T/C [3] 109% | viability, T/C [4] 104% | viability, T/C [5] 80.2% | viability, T/C [6] 18.6% | viability, T/C [7] 104% | viability, T/C [8] 117% | viability, T/C [9] 105% | viability, T/C [10] 106% | viability, T/C [11] 72.6% | viability, T/C [12] 20% | viability, T/C [13] 106% | viability, T/C [14] 109% | viability, T/C [15] 110% | viability, T/C [16] 105% | viability, T/C [17] 67.3% | viability, T/C [18] 15.3% | viability, T/C [19] 113% | viability, T/C [20] 113% | viability, T/C [21] 110% | viability, T/C [22] 98.4% | viability, T/C [23] 66.2% | viability, T/C [24] 16.5% | viability, T/C [25] 111% | viability, T/C [26] 102% | viability, T/C [27] 120% | viability, T/C [28] 98.2% | viability, T/C [29] 50.5% | viability, T/C [30] 11.6%
0.953 µM: IC50 (second compound 100 µM)
1.67 µM: IC50 (second compound 1 µM)
1.56 µM: IC50 (second compound 3.16 µM)

Cc1sc2c(c1C)C(c1ccc(Cl)cc1)=NC(CC(=O)Nc1ccc(O)cc1)c1nnc(C)n1-2 (stereo not given) + Cn1nnc2c(C(N)=O)ncn2c1=O
2.7 µM: IC50 (second compound 100 µM)
inactive: viability, T/C [1] 112% | viability, T/C [2] 95.6% | viability, T/C [3] 82% | viability, T/C [4] 76.4% | viability, T/C [5] 68% | viability, T/C [6] 64.5% | viability, T/C [7] 101% | viability, T/C [8] 97.6% | viability, T/C [9] 84.8% | viability, T/C [10] 75.6% | viability, T/C [11] 65.5% | viability, T/C [12] 61.2% | viability, T/C [13] 98% | viability, T/C [14] 94.6% | viability, T/C [15] 82.6% | viability, T/C [16] 72.6% | viability, T/C [17] 68.1% | viability, T/C [18] 57.5% | viability, T/C [19] 96.9% | viability, T/C [20] 93.9% | viability, T/C [21] 82.2% | viability, T/C [22] 70.7% | viability, T/C [23] 65.1% | viability, T/C [24] 54.3% | viability, T/C [25] 99.5% | viability, T/C [26] 99.2% | viability, T/C [27] 79.9% | viability, T/C [28] 71.5% | viability, T/C [29] 59.1% | viability, T/C [30] 48.5%
> 3 µM: IC50 (second compound 1 µM) | IC50 (second compound 3.16 µM) | IC50 (second compound 10 µM) | IC50 (second compound 31.6 µM)

Cn1ncnc1[C@H]1c2n[nH]c(=O)c3cc(F)cc(c23)N[C@@H]1c1ccc(F)cc1 + Cn1nnc2c(C(N)=O)ncn2c1=O
inactive: viability, T/C [1] 99.5% | viability, T/C [2] 93.1% | viability, T/C [3] 87.3% | viability, T/C [4] 75.5% | viability, T/C [5] 67.6% | viability, T/C [6] 51.1% | viability, T/C [7] 102% | viability, T/C [8] 89.7% | viability, T/C [9] 87.7% | viability, T/C [10] 73.9% | viability, T/C [11] 67.8% | viability, T/C [12] 50.2% | viability, T/C [13] 94% | viability, T/C [14] 88.7% | viability, T/C [15] 85.8% | viability, T/C [16] 76.6% | viability, T/C [17] 66% | viability, T/C [18] 52.2% | viability, T/C [19] 86.4% | viability, T/C [20] 74.4% | viability, T/C [21] 77.9% | viability, T/C [22] 68.3% | viability, T/C [23] 62.3% | viability, T/C [24] 43% | viability, T/C [25] 74.4% | viability, T/C [26] 71.8% | viability, T/C [27] 70.4% | viability, T/C [28] 65.9% | viability, T/C [29] 54.7% | viability, T/C [30] 34%
> 3 µM: IC50 (second compound 1 µM) | IC50 (second compound 3.16 µM) | IC50 (second compound 10 µM)
1.95 µM: IC50 (second compound 31.6 µM)
1.24 µM: IC50 (second compound 100 µM)

O=C(c1cc(Cc2n[nH]c(=O)c3ccccc23)ccc1F)N1CCN(C(=O)C2CC2)CC1 + Cn1nnc2c(C(N)=O)ncn2c1=O
> 30 µM: IC50 (second compound 1 µM) | IC50 (second compound 3.16 µM) | IC50 (second compound 10 µM) | IC50 (second compound 31.6 µM) | IC50 (second compound 100 µM)
inactive: viability, T/C [3] 99% | viability, T/C [4] 100% | viability, T/C [5] 102% | viability, T/C [6] 90.8% | viability, T/C (second compound 1 µM, first compound 9.49 µM) 80.2% | viability, T/C (second compound 1 µM, first compound 30 µM) 71.9% | viability, T/C [9] 100% | viability, T/C [10] 99.8% | viability, T/C [11] 95.4% | viability, T/C [12] 89.9% | viability, T/C (second compound 3.16 µM, first compound 9.49 µM) 82.4% | viability, T/C (second compound 3.16 µM, first compound 30 µM) 63.9% | viability, T/C [15] 98.6% | viability, T/C [16] 100% | viability, T/C [17] 98.7% | viability, T/C [18] 89.1% | viability, T/C (second compound 10 µM, first compound 9.49 µM) 74.6% | viability, T/C (second compound 10 µM, first compound 30 µM) 64.3% | viability, T/C [21] 104% | viability, T/C [22] 101% | viability, T/C [23] 90.3% | viability, T/C [24] 85.3% | viability, T/C (second compound 31.6 µM, first compound 9.49 µM) 70.9% | viability, T/C (second compound 31.6 µM, first compound 30 µM) 62.9% | viability, T/C [27] 92.7% | viability, T/C [28] 83.6% | viability, T/C [29] 80.2% | viability, T/C [30] 70.6% | viability, T/C (second compound 100 µM, first compound 9.49 µM) 67.9% | viability, T/C (second compound 100 µM, first compound 30 µM) 54.7%
